The source of these data is paper PMC12732608, “Synthesis and Evaluation of Novel 2-((1H-1,2,4-triazol-5-yl)thio)-N-benzylidene-N-phenylacetohydrazide as Potential Antimicrobial Agents” (International Journal of Molecular Sciences, 2025).

The subject of one series is E. coli. More on the design: method as in PMID 22906969. Conditions: comparable to ampicillin; cited from earlier work.
A further series relates to S. aureus. More on the design: method as in PMID 22906969. Conditions: comparable to ampicillin; cited from earlier work.
The nature of series [1]: MTT cytotoxicity assay on HEK cells. Type of series: cell-based. As to conditions: human, HEK (human embryonic kidney) cells, compared to DMSO control, read-out: cell viability. The procedure:
Cytotoxicity was evaluated on HEK (human embryonic kidney) cell lines using the MTT assay. […] Cells were grown in a medium that was supplemented with 10% FBS and 1% penicillin–streptomycin. This was incubated at 37 °C in a 5% CO2 atmosphere for 24 h. Cells were seeded at 1 × 10^3 cells/well in 96-well plates and allowed to adhere overnight. They were then treated with the test compounds, dissolved in DMSO, at a uniform concentration. […] The control wells contained untreated cells or cells treated with DMSO alone. After 24 h of treatment, 10 µL of the MTT solution (5 mg/mL) was added to each well and incubated for 3 h to allow formazan crystal formation. A solubilization solution (100 µL) was then added to dissolve the crystals. The absorbance at 570 nm was measured using a microplate reader. Cell viability was calculated as a percentage relative to the untreated control. All assays were performed in triplicate.
(Tetrazolium dyes change colour on reduction, which living cells bring about.)

The subject of series [2] is Klebsiella aerogenes ATCC 13048. Description: Growth kinetics assay (OD600) against K. aerogenes. Format: cell-based. As to conditions: 0.5 mg/mL, 6 h, K. aerogenes ATCC 13048. The protocol:
(§1) Both Gram-positive and Gram-negative bacterial strains were employed in the experiment to assess antibacterial activities of the synthesized compounds. Gram-negative Klebsiella aerogenes ATCC 13048 and Gram-positive Enterococcus species MVBP-18 strains were used for the study. Bacterial strains of both were cultured in Luria–Bertani (LB) broth for optimal growth conditions. Bacterial cultures were sustained by culturing a fresh colony from newly streaked LB agar plates to 5 mL of LB medium and incubated at 37 °C with shaking at 200 rpm continuously for 16–18 h in order to achieve the logarithmic growth phase. Overnight cultures, after incubation, were standardized by dilution to an OD600 of 0.05, which contained equal bacterial inoculum for any experimental condition. These optimized cultures were employed for subsequent antibacterial tests, such as growth kinetics analysis, to determine the impact of the test compound on bacterial growth. A preliminary screening was conducted in a 96-well microplate format. Standardized bacterial cultures were treated with the compounds at a final concentration of 0.5 mg/mL. Control wells included untreated bacteria and a DMSO control. The plate was incubated at 37°C, with shaking at 200 rpm continuously, and bacterial growth was monitored by measuring the OD600 every hour for six hours using a microplate reader ( BioTek Synergy H1). The assay was performed in triplicate.

Series [3] concerns Enterococcus species MVBP-18. Description: Growth kinetics assay (OD600) against Enterococcus sp. Type of series: cell-based. As to conditions: 0.5 mg/mL, 6 h, Enterococcus sp. MV BP 18. The protocol: as §1, with “The assay was performed in triplicate.” left out
A further series deals with K. aerogenes. Description: CFU enumeration (time-kill) against K. aerogenes. Format: cell-based, Klebsiella aerogenes. As to conditions: for effect on viable bacterial count (CFU assay), in words: within 3 h; for terminal viable bacterial count: terminal values (3 h time course). The procedure:
as §1, with “[…] Bacterial” for “A preliminary screening was conducted in a 96-well microplate format. Standardized bacterial cultures were treated with the compounds at a final concentration of 0.5 mg/mL. Control wells included untreated bacteria and a DMSO control. The plate was incubated at 37°C, with shaking at 200 rpm continuously, and bacterial”, “both” for “measuring”, “readings over 4–7 h and colony-forming unit (CFU) enumeration. For CFU counting, aliquots from the wells were serially diluted, plated on LB agar, and incubated overnight at 37 °C.” for “every hour for six hours using a microplate reader ( BioTek Synergy H1).”, “resulting colonies were counted to determine the CFU/mL. All validation experiments were also conducted” for “assay was performed”

Another series concerns Enterococcus sp. Description: CFU enumeration (time-kill) against Enterococcus sp. Type of series: cell-based. As to conditions: over 3 h incubation. The procedure: as §1, with “[…] Bacterial” for “A preliminary screening was conducted in a 96-well microplate format. Standardized bacterial cultures were treated with the compounds at a final concentration of 0.5 mg/mL. Control wells included untreated bacteria and a DMSO control. The plate was incubated at 37°C, with shaking at 200 rpm continuously, and bacterial”, “both” for “measuring”, “readings over 4–7 h and colony-forming unit (CFU) enumeration. For CFU counting, aliquots from the wells were serially diluted, plated on LB agar, and incubated overnight at 37 °C.” for “every hour for six hours using a microplate reader ( BioTek Synergy H1).”, “resulting colonies were counted to determine the CFU/mL. All validation experiments were also conducted” for “assay was performed”

On the set-up of series [4]: method as in earlier work. As to conditions: comparable to ciprofloxacin; cited from earlier work.

“Also recorded” adds a separate entry of the source.

On to `NNC(=O)CSc1nc(N=Cc2ccc(Br)cc2)n[nH]1` [2-{3-[4-bromobenzylidene)amino]-1H-1,2,4-triazol-5-ylthio}acetohydrazide], for which the antibacterial activity entry in the series on E. coli and with S. aureus was “strong antibacterial activity” throughout.

By viability is commonly meant a per cent measure of how many cells are alive, often set against a control. Turning to `O=C(CSc1nc[nH]n1)N(/N=C/c1ccccc1)c1ccccc1` [Compound 4a, E-2-((1H-1,2,4-triazol-3-yl)thio)-N′-benzylidene-N-phenylacetohydrazide], the viability at 24 h, 0.5 mg/mL in series [1] worked out at 72.6%.

In the case of `O=C(CSc1nc[nH]n1)N(/N=C/c1ccccc1Cl)c1ccccc1` [Compound 4b, E-2-((1H-1,2,4-triazol-3-yl)thio)-N′-(2-chlorobenzylidene)-N-phenylacetohydrazide], the viability at 24 h, 0.5 mg/mL in series [1] is 68.7%. Moreover, the “growth inhibition (OD600 growth kinetics)” value (from here on “growth inhibition”) in series [2] is “mild inhibitory activities”.

Consider `O=C(CSc1nc[nH]n1)N(/N=C/c1ccc(Br)cc1)c1ccccc1` [Compound 4e, E-2-((1H-1,2,4-triazol-3-yl)thio)-N′-(4-bromobenzylidene)-N-phenylacetohydrazide], for which, in series [1], the viability at 24 h, 0.5 mg/mL is 87.4%.

Take `O=C(CSc1nc[nH]n1)N(/N=C/c1ccccc1F)c1ccccc1` [Compound 4g, E-2-((1H-1,2,4-triazol-3-yl)thio)-N′-(2-fluorobenzylidene)-N-phenylacetohydrazide]: the “growth inhibition” value in series [3] is on record as “most potent inhibitor”; in series [2], “most significant growth inhibition; also recorded: highest degree of growth inhibition”. In series [1], the viability at 24 h, 0.5 mg/mL was 96%. The viable counts result with K. aerogenes (at 2 h, maintained at 3 h) is recorded as “below 10^7 CFU/mL”. Moreover, the “effect on viable bacterial count (CFU assay), in words” value (“effect on viable bacterial count” below) in the series on K. aerogenes was “reduced viable numbers by several orders of magnitude”. The viable bacterial counts with Enterococcus sp. was ~ 10^7 CFU/mL.

For the compound `O=C(CSc1nc[nH]n1)N(/N=C/c1cccc(Br)c1)c1ccccc1` [Compound 4h, E-2-((1H-1,2,4-triazol-3-yl)thio)-N′-(3-bromobenzylidene)-N-phenylacetohydrazide], the viability at 24 h, 0.5 mg/mL in series [1] amounted to 73%. In addition, in series [2], the “growth inhibition” value was “mild inhibitory activities”.

Regarding `O=C(CSc1nc[nH]n1)N(/N=C/c1c(Cl)cccc1Cl)c1ccccc1` [Compound 4j, E-2-((1H-1,2,4-triazol-3-yl)thio)-N′-(2,6-dichlorobenzylidene)-N-phenylacetohydrazide], the viability at 24 h, 0.5 mg/mL in series [1] was determined as 71.6%.

On to `COc1cc(/C=N/N(C(=O)CSc2nc[nH]n2)c2ccccc2)cc(OC)c1OC` [Compound 4l, E-2-((1H-1,2,4-triazol-3-yl)thio)-N-phenyl-N′-(3,4,5-trimethoxybenzylidene)acetohydrazide], for which the viability at 24 h, 0.5 mg/mL in series [1] turned out to be 55.8%. Moreover, in the series with K. aerogenes, the “terminal viable bacterial count” value is 10^8–10^9 CFU/mL and the “effect on viable bacterial count” value is reported as “moderate-level reduction”. Moreover, in series [2], the “growth inhibition” value was “mild inhibitory activities”.

Turning to `O=C(CSc1nc[nH]n1)N(/N=C/c1cccs1)c1ccccc1` [Compound 4n, E-2-((1H-1,2,4-triazol-3-yl)thio)-N-phenyl-N′-(thiophen-2-ylmethylene)acetohydrazide], the viability at 24 h, 0.5 mg/mL in series [1] is 52.8%. Also, in the series on K. aerogenes, the “terminal viable bacterial count” value is 10^8–10^9 CFU/mL and the “effect on viable bacterial count” value was “moderate-level reduction”. Besides, the “growth inhibition” value in series [2] was “most significant growth inhibition”.

As to `Cc1ccc(-n2c(SCC(=O)NC3CCCCC3)nnc2-c2ccncc2)cc1` [N-Cyclohexyl-2-[5-(4-pyridyl)-4-(p-tolyl)-4H-1,2,4-triazole-3-sulfanyl]-acetamide], the antibacterial activity entry in series [4] is given as “good level of inhibition”.
